Experimental data published in ChEMBL document CHEMBL4507284, “Data for DCP probe BI-1230” (2021).

How the values were obtained:
[1] = target: Activin receptor type-2A (Homo sapiens) (UniProt P27037); conditions: Compound concentration 1000.0 nM
[2] = target: Atypical kinase COQ8A, mitochondrial (Homo sapiens) (UniProt Q8NI60); conditions: Compound concentration 1000.0 nM
[3] = target: 5'-AMP-activated protein kinase catalytic subunit alpha-1 (Homo sapiens) (UniProt Q13131); conditions: Compound concentration 1000.0 nM
[4] = target: Tyrosine-protein kinase receptor UFO (Homo sapiens) (UniProt P30530); conditions: Compound concentration 1000.0 nM
[5] = target: Tyrosine-protein kinase BTK (Homo sapiens) (UniProt Q06187); conditions: Compound concentration 1000.0 nM
[6] = target: Calcium/calmodulin-dependent protein kinase type 1B (Homo sapiens) (UniProt Q6P2M8); conditions: Compound concentration 1000.0 nM
[7] = target: Calcium/calmodulin-dependent protein kinase kinase 2 (Homo sapiens) (UniProt Q96RR4); conditions: Compound concentration 1000.0 nM
[8] = target: Cyclin-dependent kinase-like 3 (Homo sapiens) (UniProt Q8IVW4); conditions: Compound concentration 1000.0 nM
[9] = target: Macrophage colony-stimulating factor 1 receptor (Homo sapiens) (UniProt P07333); conditions: Compound concentration 1000.0 nM
[10] = target: Casein kinase I isoform gamma-3 (Homo sapiens) (UniProt Q9Y6M4); conditions: Compound concentration 1000.0 nM
[11] = target: Megakaryocyte-associated tyrosine-protein kinase (Homo sapiens) (UniProt P42679); conditions: Compound concentration 1000.0 nM
[12] = target: Ephrin type-A receptor 5 (Homo sapiens) (UniProt P54756); conditions: Compound concentration 1000.0 nM
[13] = target: Mitogen-activated protein kinase 15 (Homo sapiens) (UniProt Q8TD08); conditions: Compound concentration 1000.0 nM
[14] = system: eIF-2-alpha kinase GCN2 (Homo sapiens), Q9P2K8 [S808G]; conditions: Compound concentration 1000.0 nM
[15] = target: Beta-adrenergic receptor kinase 1 (Homo sapiens) (UniProt P25098); conditions: Compound concentration 1000.0 nM
[16] = target: Glycogen synthase kinase-3 beta (Homo sapiens) (UniProt P49841); conditions: Compound concentration 1000.0 nM
[17] = target: Inhibitor of nuclear factor kappa-B kinase subunit epsilon (Homo sapiens) (UniProt Q14164); conditions: Compound concentration 1000.0 nM
[18] = target: Insulin receptor-related protein (Homo sapiens) (UniProt P14616); conditions: Compound concentration 1000.0 nM
[19] = target: Tyrosine-protein kinase Lck (Homo sapiens) (UniProt P06239); conditions: Compound concentration 1000.0 nM
[20] = target: Serine/threonine-protein kinase 10 (Homo sapiens) (UniProt O94804); conditions: Compound concentration 1000.0 nM
[21] = system: Leucine-rich repeat serine/threonine-protein kinase 2 (Homo sapiens), Q5S007 [G2019S]; conditions: Compound concentration 1000.0 nM
[22] = target: Leukocyte tyrosine kinase receptor (Homo sapiens) (UniProt P29376); conditions: Compound concentration 1000.0 nM
[23] = target: Mitogen-activated protein kinase kinase kinase 15 (Homo sapiens) (UniProt Q6ZN16); conditions: Compound concentration 1000.0 nM
[24] = target: Mitogen-activated protein kinase kinase kinase 3 (Homo sapiens) (UniProt Q99759); conditions: Compound concentration 1000.0 nM
[25] = target: Maternal embryonic leucine zipper kinase (Homo sapiens) (UniProt Q14680); conditions: Compound concentration 1000.0 nM
[26] = target: Myosin-IIIb (Homo sapiens) (UniProt Q8WXR4); conditions: Compound concentration 1000.0 nM
[27] = target: Serine/threonine-protein kinase Nek4 (Homo sapiens) (UniProt P51957); conditions: Compound concentration 1000.0 nM
[28] = target: Mitogen-activated protein kinase 14 (Homo sapiens) (UniProt Q16539); conditions: Compound concentration 1000.0 nM
[29] = target: Cyclin-dependent kinase 14 (Homo sapiens) (UniProt O94921); conditions: Compound concentration 1000.0 nM
[30] = target: Membrane-associated tyrosine- and threonine-specific cdc2-inhibitory kinase (Homo sapiens) (UniProt Q99640); conditions: Compound concentration 1000.0 nM
[31] = target: Serine/threonine-protein kinase PknB (Mycobacterium tuberculosis) (UniProt P9WI81); conditions: Compound concentration 1000.0 nM
[32] = target: Protein kinase C theta type (Homo sapiens) (UniProt Q04759); conditions: Compound concentration 1000.0 nM
[33] = target: Serine/threonine-protein kinase D3 (Homo sapiens) (UniProt O94806); conditions: Compound concentration 1000.0 nM
[34] = target: Serine/threonine-protein kinase PRP4 homolog (Homo sapiens) (UniProt Q13523); conditions: Compound concentration 1000.0 nM
[35] = target: Protein-tyrosine kinase 2-beta (Homo sapiens) (UniProt Q14289); conditions: Compound concentration 1000.0 nM
[36] = target: Receptor-interacting serine/threonine-protein kinase 2 (Homo sapiens) (UniProt O43353); conditions: Compound concentration 1000.0 nM
[37] = target: Ribosomal protein S6 kinase alpha-4 (Homo sapiens) (UniProt O75676); conditions: Compound concentration 1000.0 nM
[38] = target: Proto-oncogene tyrosine-protein kinase Src (Homo sapiens) (UniProt P12931); conditions: Compound concentration 1000.0 nM
[39] = target: Serine/threonine-protein kinase 36 (Homo sapiens) (UniProt Q9NRP7); conditions: Compound concentration 1000.0 nM
[40] = target: Serine/threonine-protein kinase TAO2 (Homo sapiens) (UniProt Q9UL54); conditions: Compound concentration 1000.0 nM
[41] = target: Serine/threonine-protein kinase 25 (Homo sapiens) (UniProt O00506); conditions: Compound concentration 1000.0 nM
[42] = target: 5-hydroxytryptamine receptor 1B (Homo sapiens) (UniProt P28222); conditions: Compound concentration 10.0 uM
[43] = target: 5-hydroxytryptamine receptor 2B (Homo sapiens) (UniProt P41595); conditions: Compound concentration 10.0 uM
[44] = target: Sodium-dependent serotonin transporter (Homo sapiens) (UniProt P31645); conditions: Compound concentration 10.0 uM
[45] = target: Muscarinic acetylcholine receptor M3 (Homo sapiens) (UniProt P20309); conditions: Compound concentration 10.0 uM

Serine/threonine-protein kinase PRP4 homolog (Homo sapiens), sequence (Q13523 whole entry): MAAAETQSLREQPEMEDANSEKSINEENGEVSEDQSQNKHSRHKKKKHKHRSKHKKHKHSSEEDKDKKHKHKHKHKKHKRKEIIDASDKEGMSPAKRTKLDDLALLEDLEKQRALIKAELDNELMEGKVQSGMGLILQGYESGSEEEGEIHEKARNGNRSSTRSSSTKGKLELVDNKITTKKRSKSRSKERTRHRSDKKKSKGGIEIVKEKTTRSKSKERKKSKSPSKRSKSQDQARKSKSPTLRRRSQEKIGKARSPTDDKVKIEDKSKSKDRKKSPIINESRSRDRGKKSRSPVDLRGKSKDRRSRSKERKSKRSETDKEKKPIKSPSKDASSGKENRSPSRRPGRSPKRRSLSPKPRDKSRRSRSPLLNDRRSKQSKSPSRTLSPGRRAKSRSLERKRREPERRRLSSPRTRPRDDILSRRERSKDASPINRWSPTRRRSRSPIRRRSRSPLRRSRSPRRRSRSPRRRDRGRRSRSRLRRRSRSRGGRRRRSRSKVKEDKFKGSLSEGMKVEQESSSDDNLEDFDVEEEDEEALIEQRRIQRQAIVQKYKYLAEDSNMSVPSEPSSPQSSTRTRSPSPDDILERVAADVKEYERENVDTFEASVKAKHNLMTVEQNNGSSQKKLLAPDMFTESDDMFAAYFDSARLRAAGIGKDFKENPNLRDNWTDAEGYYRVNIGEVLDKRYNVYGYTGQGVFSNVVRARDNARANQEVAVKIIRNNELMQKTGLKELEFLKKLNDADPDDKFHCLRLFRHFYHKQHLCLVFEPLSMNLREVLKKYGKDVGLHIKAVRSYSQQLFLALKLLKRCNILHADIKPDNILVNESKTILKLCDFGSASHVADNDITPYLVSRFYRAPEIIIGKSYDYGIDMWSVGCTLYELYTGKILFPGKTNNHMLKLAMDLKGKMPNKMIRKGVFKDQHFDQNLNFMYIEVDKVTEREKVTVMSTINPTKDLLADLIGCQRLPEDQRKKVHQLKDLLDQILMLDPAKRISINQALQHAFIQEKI
Maternal embryonic leucine zipper kinase (Homo sapiens), sequence (Q14680 whole entry, looked up): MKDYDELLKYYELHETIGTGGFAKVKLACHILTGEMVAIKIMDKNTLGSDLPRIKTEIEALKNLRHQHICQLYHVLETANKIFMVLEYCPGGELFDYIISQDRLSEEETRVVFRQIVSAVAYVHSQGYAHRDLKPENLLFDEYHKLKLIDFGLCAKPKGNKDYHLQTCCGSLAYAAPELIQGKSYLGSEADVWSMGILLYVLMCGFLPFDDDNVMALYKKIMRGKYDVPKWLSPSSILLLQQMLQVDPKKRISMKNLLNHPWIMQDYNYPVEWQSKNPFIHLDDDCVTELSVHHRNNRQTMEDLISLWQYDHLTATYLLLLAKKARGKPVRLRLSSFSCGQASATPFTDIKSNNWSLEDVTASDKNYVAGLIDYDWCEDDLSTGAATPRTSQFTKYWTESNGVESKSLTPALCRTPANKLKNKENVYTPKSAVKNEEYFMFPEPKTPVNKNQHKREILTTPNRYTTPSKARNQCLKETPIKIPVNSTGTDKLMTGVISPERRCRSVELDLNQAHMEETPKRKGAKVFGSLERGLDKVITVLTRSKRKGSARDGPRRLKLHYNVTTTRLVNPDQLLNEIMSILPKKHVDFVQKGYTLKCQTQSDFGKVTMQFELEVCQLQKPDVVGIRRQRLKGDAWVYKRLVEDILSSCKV
Glycogen synthase kinase-3 beta (Homo sapiens), sequence (P49841 whole entry, looked up): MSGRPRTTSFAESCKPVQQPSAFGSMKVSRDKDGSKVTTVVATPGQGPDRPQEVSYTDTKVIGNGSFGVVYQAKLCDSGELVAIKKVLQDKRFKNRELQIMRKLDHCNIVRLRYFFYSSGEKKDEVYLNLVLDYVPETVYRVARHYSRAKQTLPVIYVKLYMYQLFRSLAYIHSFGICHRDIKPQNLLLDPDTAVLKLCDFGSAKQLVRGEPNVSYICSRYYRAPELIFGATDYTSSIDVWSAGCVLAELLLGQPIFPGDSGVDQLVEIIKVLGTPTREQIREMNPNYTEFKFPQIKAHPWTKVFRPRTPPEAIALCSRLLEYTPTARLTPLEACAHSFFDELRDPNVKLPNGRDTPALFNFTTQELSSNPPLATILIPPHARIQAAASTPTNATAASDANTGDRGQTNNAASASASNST
Protein kinase C theta type (Homo sapiens), sequence (Q04759 whole entry, looked up): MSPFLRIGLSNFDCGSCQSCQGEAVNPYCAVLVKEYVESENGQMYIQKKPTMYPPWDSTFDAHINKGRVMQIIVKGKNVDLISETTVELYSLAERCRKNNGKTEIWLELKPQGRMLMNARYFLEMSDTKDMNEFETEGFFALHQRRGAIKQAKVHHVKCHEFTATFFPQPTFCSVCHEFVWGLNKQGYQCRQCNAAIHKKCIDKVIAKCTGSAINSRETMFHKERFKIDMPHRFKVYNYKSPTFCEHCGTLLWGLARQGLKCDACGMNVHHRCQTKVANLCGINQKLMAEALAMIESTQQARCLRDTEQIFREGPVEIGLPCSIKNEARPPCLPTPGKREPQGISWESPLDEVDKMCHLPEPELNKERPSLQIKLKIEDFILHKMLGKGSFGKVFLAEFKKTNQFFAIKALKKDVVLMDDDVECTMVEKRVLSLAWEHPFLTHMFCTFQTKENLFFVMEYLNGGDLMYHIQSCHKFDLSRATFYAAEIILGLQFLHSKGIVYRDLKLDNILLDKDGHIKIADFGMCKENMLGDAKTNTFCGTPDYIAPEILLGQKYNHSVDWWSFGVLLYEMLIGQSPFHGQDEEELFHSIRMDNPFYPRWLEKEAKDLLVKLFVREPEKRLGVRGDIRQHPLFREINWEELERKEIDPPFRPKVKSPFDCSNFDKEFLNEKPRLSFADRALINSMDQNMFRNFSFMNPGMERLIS
5-hydroxytryptamine receptor 2B (Homo sapiens), sequence (P41595 whole entry): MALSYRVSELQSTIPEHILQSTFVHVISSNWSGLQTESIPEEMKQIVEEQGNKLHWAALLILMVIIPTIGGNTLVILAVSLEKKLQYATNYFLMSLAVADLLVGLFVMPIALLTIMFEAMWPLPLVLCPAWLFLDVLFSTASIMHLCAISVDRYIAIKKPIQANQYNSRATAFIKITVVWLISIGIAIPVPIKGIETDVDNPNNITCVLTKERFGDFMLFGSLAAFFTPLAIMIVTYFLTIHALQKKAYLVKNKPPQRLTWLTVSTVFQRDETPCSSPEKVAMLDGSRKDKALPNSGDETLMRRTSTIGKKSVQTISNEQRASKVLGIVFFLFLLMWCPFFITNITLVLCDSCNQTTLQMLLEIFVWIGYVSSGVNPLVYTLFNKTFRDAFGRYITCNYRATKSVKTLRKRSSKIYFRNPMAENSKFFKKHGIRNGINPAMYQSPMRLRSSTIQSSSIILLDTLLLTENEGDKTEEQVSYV
Mitogen-activated protein kinase 15 (Homo sapiens), sequence (Q8TD08 whole entry): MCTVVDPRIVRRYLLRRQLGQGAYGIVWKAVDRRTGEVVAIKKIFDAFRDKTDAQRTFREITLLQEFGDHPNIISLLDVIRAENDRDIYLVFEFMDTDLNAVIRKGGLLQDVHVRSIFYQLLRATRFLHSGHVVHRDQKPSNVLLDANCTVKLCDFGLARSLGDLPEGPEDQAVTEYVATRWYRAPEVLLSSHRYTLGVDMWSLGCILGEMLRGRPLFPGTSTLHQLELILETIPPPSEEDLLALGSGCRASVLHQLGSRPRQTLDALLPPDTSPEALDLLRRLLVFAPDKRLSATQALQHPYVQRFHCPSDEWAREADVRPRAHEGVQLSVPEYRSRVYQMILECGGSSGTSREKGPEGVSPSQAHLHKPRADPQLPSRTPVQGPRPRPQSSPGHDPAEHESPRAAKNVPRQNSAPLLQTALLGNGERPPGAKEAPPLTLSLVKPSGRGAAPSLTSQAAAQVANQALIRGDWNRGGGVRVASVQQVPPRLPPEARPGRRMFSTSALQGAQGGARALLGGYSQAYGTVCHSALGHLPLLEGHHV
Megakaryocyte-associated tyrosine-protein kinase (Homo sapiens), sequence (P42679 whole entry): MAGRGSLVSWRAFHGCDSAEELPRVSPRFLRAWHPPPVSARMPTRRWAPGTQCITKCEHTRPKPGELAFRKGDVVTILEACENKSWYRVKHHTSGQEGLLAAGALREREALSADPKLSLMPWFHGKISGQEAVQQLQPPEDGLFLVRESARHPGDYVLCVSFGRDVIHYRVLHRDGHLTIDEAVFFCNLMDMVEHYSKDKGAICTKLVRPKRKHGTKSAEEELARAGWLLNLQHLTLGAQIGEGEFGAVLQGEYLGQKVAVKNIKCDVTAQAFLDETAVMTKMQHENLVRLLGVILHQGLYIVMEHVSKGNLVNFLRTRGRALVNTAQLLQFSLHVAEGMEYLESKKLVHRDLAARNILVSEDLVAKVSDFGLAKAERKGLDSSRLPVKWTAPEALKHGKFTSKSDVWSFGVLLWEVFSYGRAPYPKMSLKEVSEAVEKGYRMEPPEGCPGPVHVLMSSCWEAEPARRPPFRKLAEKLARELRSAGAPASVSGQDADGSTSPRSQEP
Inhibitor of nuclear factor kappa-B kinase subunit epsilon (Homo sapiens), sequence (Q14164 whole entry): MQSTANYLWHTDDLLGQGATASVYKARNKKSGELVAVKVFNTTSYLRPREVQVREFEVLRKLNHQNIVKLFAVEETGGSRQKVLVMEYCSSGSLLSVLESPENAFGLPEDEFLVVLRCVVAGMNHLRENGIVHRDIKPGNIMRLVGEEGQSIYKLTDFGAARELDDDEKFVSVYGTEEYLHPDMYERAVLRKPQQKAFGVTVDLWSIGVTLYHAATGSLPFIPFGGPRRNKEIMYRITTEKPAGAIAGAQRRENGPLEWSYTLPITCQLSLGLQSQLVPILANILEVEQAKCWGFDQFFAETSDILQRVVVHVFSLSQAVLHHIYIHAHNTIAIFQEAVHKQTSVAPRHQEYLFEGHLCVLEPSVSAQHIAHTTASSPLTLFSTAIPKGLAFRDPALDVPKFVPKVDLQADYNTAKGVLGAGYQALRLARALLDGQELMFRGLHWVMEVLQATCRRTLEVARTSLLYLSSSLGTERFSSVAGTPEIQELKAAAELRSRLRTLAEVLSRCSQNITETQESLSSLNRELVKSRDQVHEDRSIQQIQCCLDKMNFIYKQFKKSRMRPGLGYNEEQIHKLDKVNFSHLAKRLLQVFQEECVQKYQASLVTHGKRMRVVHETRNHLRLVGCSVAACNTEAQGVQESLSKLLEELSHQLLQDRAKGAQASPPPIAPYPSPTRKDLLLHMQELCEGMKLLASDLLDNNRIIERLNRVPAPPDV

COc1ccc2c(O[C@@H]3C[C@H]4C(=O)N[C@]5(C(=O)O)CC5/C=C\CCCCC[C@H](NC(=O)OC5CCCC5)C(=O)N4C3)cc(-c3csc(NC(=O)C(C)C)n3)nc2c1C (stereo not given in full) [BI 1230]
residual activity [1]: 72%
residual activity [2]: 100%
residual activity [3]: 100%
residual activity [4]: 97%
residual activity [5]: 85%
residual activity [6]: 88%
residual activity [7]: 100%
residual activity [8]: 92%
residual activity [9]: 89%
residual activity [10]: 100%
residual activity [11]: 50%
residual activity [12]: 97%
residual activity [13]: 100%
residual activity [14]: 100%
residual activity [15]: 83%
residual activity [16]: 100%
residual activity [17]: 82%
residual activity [18]: 95%
residual activity [19]: 100%
residual activity [20]: 100%
residual activity [21]: 91%
residual activity [22]: 100%
residual activity [23]: 70%
residual activity [24]: 79%
residual activity [25]: 44%
residual activity [26]: 68%
residual activity [27]: 93%
residual activity [28]: 100%
residual activity [29]: 88%
residual activity [30]: 100%
residual activity [31]: 94%
residual activity [32]: 100%
residual activity [33]: 100%
residual activity [34]: 93%
residual activity [35]: 100%
residual activity [36]: 100%
residual activity [37]: 72%
residual activity [38]: 100%
residual activity [39]: 93%
residual activity [40]: 98%
residual activity [41]: 100%
inhibition [42]: 7.71%
inhibition [43]: 0.15%
inhibition [44]: -8.36%
inhibition [45]: 0.21%

O=C(N[C@H]1CCCCC/C=C\C2C[C@@]2(C(=O)O)NC(=O)[C@@H]2C[C@@H](Oc3ccncc3)CN2C1=O)OC1CCCC1 (stereo not given in full) [BI 1675]
residual activity [1]: 96%
residual activity [2]: 90%
residual activity [3]: 100%
residual activity [4]: 95%
residual activity [5]: 100%
residual activity [6]: 99%
residual activity [7]: 95%
residual activity [8]: 99%
residual activity [9]: 92%
residual activity [10]: 100%
residual activity [11]: 41%
residual activity [12]: 100%
residual activity [13]: 100%
residual activity [14]: 100%
residual activity [15]: 51%
residual activity [16]: 89%
residual activity [17]: 100%
residual activity [18]: 100%
residual activity [19]: 100%
residual activity [20]: 99%
residual activity [21]: 86%
residual activity [22]: 99%
residual activity [23]: 68%
residual activity [24]: 89%
residual activity [25]: 84%
residual activity [26]: 38%
residual activity [27]: 79%
residual activity [28]: 94%
residual activity [29]: 91%
residual activity [30]: 97%
residual activity [31]: 93%
residual activity [32]: 100%
residual activity [33]: 82%
residual activity [34]: 92%
residual activity [35]: 100%
residual activity [36]: 100%
residual activity [37]: 85%
residual activity [38]: 100%
residual activity [39]: 85%
residual activity [40]: 100%
residual activity [41]: 97%
inhibition [42]: -3.04%
inhibition [43]: 1.85%
inhibition [44]: -6.94%
inhibition [45]: -5.57%
